Measurements reported in the supplement of paper PMC13380429.
± gives the standard deviation of the averaged measurements.

Experiments:
Conditions in all cases: 72 h
U2OS [1] = assay: cell viability relative to DMSO; higher = less toxic
Calu-3 [2] = assay: as above
Vero E6 [3] = assay: as above
HepG2 [4] = assay: as above
Caco-2 [5] = assay: as above
U2OS [6] = assay: relative viability EC50 (midpoint between 100% and the lowest measured viability); higher = less toxic
Calu-3 [7] = assay: as above
Vero E6 [8] = assay: as above
HepG2 [9] = assay: as above
Caco-2 [10] = assay: as above
U2OS [11] = assay: drug sensitivity score (DSS) for viability; higher = more toxic; extreme values may be limits of the assay
Calu-3 [12] = assay: as above
Vero E6 [13] = assay: as above
HepG2 [14] = assay: as above
Caco-2 [15] = assay: as above

SMILES | cell viability (U2OS [1]; 1 nM) [%] | cell viability (U2OS [1]; 10 nM) [%] | cell viability (U2OS [1]; 100 nM) [%] | cell viability (U2OS [1]; 1000 nM) [%] | cell viability (U2OS [1]; 10000 nM) [%] | cell viability (Calu-3 [2]; 1 nM) [%] | cell viability (Calu-3 [2]; 10 nM) [%] | cell viability (Calu-3 [2]; 100 nM) [%] | cell viability (Calu-3 [2]; 1000 nM) [%] | cell viability (Calu-3 [2]; 10000 nM) [%] | cell viability (Vero E6 [3]; 1 nM) [%] | cell viability (Vero E6 [3]; 10 nM) [%] | cell viability (Vero E6 [3]; 100 nM) [%] | cell viability (Vero E6 [3]; 1000 nM) [%] | cell viability (Vero E6 [3]; 10000 nM) [%] | cell viability (HepG2 [4]; 1 nM) [%] | cell viability (HepG2 [4]; 10 nM) [%] | cell viability (HepG2 [4]; 100 nM) [%] | cell viability (HepG2 [4]; 1000 nM) [%] | cell viability (HepG2 [4]; 10000 nM) [%] | cell viability (Caco-2 [5]; 1 nM) [%] | cell viability (Caco-2 [5]; 10 nM) [%] | cell viability (Caco-2 [5]; 100 nM) [%] | cell viability (Caco-2 [5]; 1000 nM) [%] | cell viability (Caco-2 [5]; 10000 nM) [%] | relative viability EC50 (U2OS [6]) [µM] | relative viability EC50 (Calu-3 [7]) [µM] | relative viability EC50 (Vero E6 [8]) [µM] | relative viability EC50 (HepG2 [9]) [µM] | relative viability EC50 (Caco-2 [10]) [µM] | drug sensitivity score (U2OS [11]) | drug sensitivity score (Calu-3 [12]) | drug sensitivity score (Vero E6 [13]) | drug sensitivity score (HepG2 [14]) | drug sensitivity score (Caco-2 [15])
CCCCCCCCCCCCCCCCCCN(CCCCCCCCCCCCCCCCCC)CCCN(CCO)CCO [avridine] | 95.7 | 101 | 98.9 | 104 | 100 | 91.5 | 101 | 101 | 95.7 | 108 | 104 | 101 | 106 | 98.5 | 102 | 109 | 98.1 | 98 | 106 | 108 | 106 | 97 | 90.4 | 105 | 146 | > 10 | > 10 | > 10 | > 10 | > 10 | 0 | 0 | 0 | 0 | 0
CCC1(C)CC(=O)NC(=O)C1 [bemegride] | 100 | 96.6 | 98.6 | 99.8 | 102 | 92.2 | 114 | 101 | 105 | 98.1 | 98.2 | 102 | 94.6 | 99.1 | 112 | 102 | 101 | 108 | 90.8 | 112 | 102 | 90.1 | 90.8 | 94.8 | 98.8 | > 10 | > 10 | > 10 | > 10 | > 10 | 0 | 0 | 0 | 0 | 0
O=C(O)Cc1ccc(OCc2ccccc2)c(Cl)c1 [benzofenac] | 98.2 | 98.2 | 99.3 | 100 | 94.4 | 97.6 | 109 | 98.9 | 111 | 93.4 | 103 | 105 | 106 | 99.6 | 96.1 | 98.5 | 92.7 | 94.3 | 87.1 | 93.8 | 96.9 | 114 | 112 | 104 | 107 | > 10 | > 10 | > 10 | > 10 | > 10 | 0 | 0 | 0 | 0 | 0
O=C(OOC(=O)c1ccccc1)c1ccccc1 [benzoyl-peroxide] | 98 | 95.2 | 99.3 | 97.6 | 94.1 | 99 | 95.8 | 103 | 99 | 103 | 95.6 | 98.8 | 92 | 95 | 105 | 92.1 | 104 | 99.1 | 110 | 107 | 102 | 87.9 | 96.6 | 91.2 | 99.4 | > 10 | > 10 | > 10 | > 10 | > 10 | 0 | 0 | 0 | 0 | 0
CCCCCCCCCCCCCCCC[N+](C)(C)Cc1ccccc1 [benzyldimethylhexadecylammonium] | 99.6 | 101 | 102 | 102 | 14.1 | 94.9 | 105 | 105 | 102 | 41.2 | 99 | 94.6 | 100 | 94.5 | 92.8 | 113 | 101 | 102 | 93.7 | 30.6 | 93.9 | 96.1 | 91.9 | 89.4 | 18 | 3.28 | 3.39 | > 10 | 2.41 | 2.12 | 4.6 | 3 | 0 | 4.8 | 6.3
CN(C)CCC(c1ccc(Br)cc1)c1ccccn1 (stereo not given) [brompheniramine] | 106 | 101 | 102 | 97.6 | 102 | 94.9 | 99.5 | 96.6 | 94.5 | 88.9 | 98.8 | 102 | 100 | 105 | 94.9 | 99.3 | 98.5 | 96.4 | 93.7 | 88.1 | 92.3 | 75.3 | 96.6 | 101 | 96.2 | > 10 | > 10 | > 10 | > 10 | > 10 | 0 | 0 | 0 | 0 | 0
O=C(O)C1(C(=O)O)CCC1.[NH2-].[NH2-].[Pt+2] [carboplatin] | 94.3 | 95.9 | 93.2 | 100 | 108 | 90.8 | 98.8 | 93.6 | 90.7 | 106 | 99.6 | 92.5 | 103 | 98.4 | 109 | 106 | 98.7 | 99.5 | 90.7 | 103 | 97.8 | 102 | 85.4 | 94.9 | 100 | > 10 | > 10 | > 10 | > 10 | > 10 | 0 | 0 | 0 | 0 | 0
CCC(C)(Oc1ccc(C2(c3ccc(OC(C)(CC)C(=O)O)cc3)CCCCC2)cc1)C(=O)O (stereo not given) [clinofibrate] | 96.9 | 98.3 | 102 | 95.6 | 94.9 | 96.1 | 93.7 | 99.9 | 102 | 98.9 | 96.4 | 101 | 96 | 99.2 | 107 | 93.9 | 106 | 92.6 | 120 | 108 | 103 | 98.2 | 99 | 105 | 104 | > 10 | > 10 | > 10 | > 10 | > 10 | 0 | 0 | 0 | 0 | 0
COC(=O)[C@H](c1ccccc1Cl)N1CCc2sccc2C1 [clopidogrel] | 94.8 | 99.3 | 95.8 | 102 | 97.6 | 89.9 | 104 | 96.9 | 96.7 | 101 | 105 | 86.7 | 104 | 104 | 108 | 97.7 | 97.7 | 98.4 | 112 | 101 | 91.9 | 91.8 | 95.1 | 95 | 88.2 | > 10 | > 10 | > 10 | > 10 | > 10 | 0 | 0 | 0 | 0 | 0
CCC(C)CCCC(=O)N[C@@H](CCN)C(=O)N[C@H](C(=O)N[C@@H](CCN)C(=O)N[C@H]1CCNC(=O)[C@H]([C@@H](C)O)NC(=O)[C@H](CCN)NC(=O)[C@H](CCN)NC(=O)[C@H](CC(C)C)NC(=O)[C@@H](CC(C)C)NC(=O)[C@H](CCN)NC1=O)[C@@H](C)O (stereo not given in full) [colistin] | 99.7 ± 1.4 | 100 ± 2 | 97.8 ± 0.14 | 102.75 ± 0.071 | 99.2 ± 1.1 | 100 ± 4 | 93.4 ± 4.2 | 94.3 ± 4.8 | 98 ± 15 | 85.4 ± 7.2 | 101 ± 2.5 | 101 ± 2.5 | 104 ± 2.5 | 98.5 ± 1.2 | 103 ± 1.6 | 94 ± 1.7 | 105 ± 2 | 99.3 ± 11 | 103 ± 2 | 97.5 ± 8.1 | 94.7 ± 6.2 | 98.4 ± 1.8 | 101 ± 7.6 | 104 ± 1.4 | 101 ± 10 | > 10 | > 10 | > 10 | > 10 | > 10 | 0 | 0.95 ± 1.3 | 0 | 0 | 0
O=C(O)c1ccc(OCCn2ccnc2)cc1 [dazoxiben] | 99.8 | 96.5 | 103 | 91.4 | 103 | 101 | 97.7 | 103 | 102 | 97.7 | 96.3 | 101 | 96.9 | 103 | 110 | 104 | 103 | 84.5 | 102 | 89.8 | 108 | 92.7 | 114 | 98.2 | 101 | > 10 | > 10 | > 10 | > 10 | > 10 | 0 | 0 | 0 | 0 | 0
COc1ccc2c(c1)[C@]13CCCC[C@@H]1[C@H](C2)N(C)CC3 [dextromethorphan] | 97.1 | 98.3 | 99.7 | 95.3 | 97.1 | 95.6 | 106 | 89.6 | 99.3 | 102 | 92.1 | 100 | 97.3 | 95.9 | 104 | 111 | 108 | 95.8 | 103 | 109 | 98.1 | 98.9 | 104 | 97.7 | 97.7 | > 10 | > 10 | > 10 | > 10 | > 10 | 0 | 0 | 0 | 0 | 0
N#Cc1ccc(N2CCN(C(=O)COc3ccc4[nH]cc(CCN)c4c3)CC2)cc1 [donitriptan] | 101 | 102 | 99.4 | 99.7 | 107 | 89 | 103 | 107 | 106 | 111 | 95.1 | 101 | 98 | 98.5 | 107 | 102 | 105 | 94.1 | 102 | 94.8 | 92.4 | 88.7 | 89 | 97.1 | 104 | > 10 | > 10 | > 10 | > 10 | > 10 | 0 | 0 | 0 | 0 | 0
CCN[C@H]1C[C@H](C)S(=O)(=O)c2sc(S(N)(=O)=O)cc21 [dorzolamide] | 95.2 | 100 | 93.6 | 101 | 97.4 | 100 | 100 | 95.7 | 88.3 | 98.4 | 98.5 | 101 | 92.6 | 98.1 | 91.1 | 113 | 93.7 | 104 | 94.9 | 99.4 | 101 | 108 | 84 | 94.7 | 100 | > 10 | > 10 | > 10 | > 10 | > 10 | 0 | 0 | 0 | 0 | 0
